US12691094B2, “Use of Crassifolin A in preparation of drug for promoting mitophagy and treating neurodegenerative diseases” (JINAN UNIVERSITY, priority 2021, dated 2026)

Legend:
Tau model mice = test: Morris water maze test of learning memory; assay type: in vivo; details: 10-month-old Tau model mice, oral 20 mg/kg for 3 consecutive months
LC3B = test: Western blot of LC3B in hSY5Y cells; assay type: cell-based; details: JGX-1 10 μmol/L, 24 h
Text: • a. […]

pTAU (202) = test: Western blot of phosphorylated Tau in hSY5Y cells; assay type: cell-based; details: JGX-1 10 μmol/L, 24 h
Text: • a. […]

Hela-mt-Keima cells [1] = test: Detection of mitophagy in Hela-mt-Keima cells by confocal microscopy; assay type: cell-based; details: 10 μM JGX-1, 8 h
Text: (§1) The Keima fluorescent protein derived from anthozoan has a pH value-dependent bimodal excitation spectrum, that is, Keima at neutral pH and acidic pH can be excited to emit green fluorescence and red fluorescence under the excitation of light with a wavelength of 440 nm and 586 nm, respectively. Since mitochondria that undergo autophagy eventually enter acidic lysosomes, Keima with the mitochondrial localization (mitochondrial Keima, mt-Keima) can indicate the mitochondria that enter the lysosomes via the autophagic pathway. The specific procedure of this experiment is as follows:
Inoculation of Hela-mt-Keima cells into 12 laser confocal cell culture dishes at a density of 1×10^4, and then adding 1 mL of DMEM medium containing 10% (v/v) FBS; after 5 h, changing the solution, and dividing into a solvent control group (DMSO), a positive drug control group (10 μM FCCP), an experimental group 1 (10 μM JGX-1+10 μM FCCP) and an experimental group 2 (10 μM JGX-1), with 3 replicates in each group; incubating cells in a 5% (v/v) CO2 cell culture incubator at 37° C.; after 8 h, observing the changes in the excitation fluorescence signals of the 458 nm channel (indicating Keima at neutral pH) and the 561 nm channel (indicating Keima at acidic pH) under a laser confocal microscope, randomly selecting 3 fields of view to take photos, and then statistically plotting.

Hela-mt-Keima cells [2] = test: Flow cytometry of Hela-mt-Keima cells for screening a mitophagy drug; assay type: cell-based; details: 10 μM JGX-1+10 μM FCCP (FIG. 1 legend: JGX-1 10 μM)
Text: as §1, with “is, Keima can be” for “is, Keima at neutral pH and acidic pH can be”, “green fluorescence at neutral pH and acidic pH and red” for “green fluorescence and red”, “mitochondrial localization (mitocondrial Keima, mt-Keima)” for “mitochondrial localization (mitochondrial Keima, mt-Keima)”, “is as follow:” for “is as follows:”
Inoculation of Hela-mt-Keima cells into a 24-well plate at a density of 5×10^4, and then adding 1 mL of DMEM medium containing 10% (v/v) fetal bovine serum (FBS) to them to culture for 24 h; after 24 h, respectively adding 0.1% (v/v) DMSO (dimethyl sulfoxide), with DMSO (10 μM) as a solvent control group (DMSO), 10 μM of mitochondrial uncoupling agent (FCCP) (sigma) as a positive drug control group, and 10 μM JGX-1+10 μM FCCP as an experimental group, each group having 3 replicates; collecting cells on the third day by centrifugation at 1000×g for 3 min, resuspending in 0.5 mL of PBS buffer, sieving at 40 μm on the machine, collecting 5×10^4 cells by flow cytometry, recording the collection time, 405 nm/Qdot605-A, 561 nm/PE-Texas Red-A, and calculating MI=561/405+561.

## COC(=O)[C@]1(C)CCCC2=C1CC[C@@H](C)[C@]2(C)CCC1=CC(=O)OC1 [JGX-1, Crassifolin A]
Tau model mice
  dementia symptoms in the model mice: alleviated
  learning memory of AD model mice: improved effect
LC3B
  expression of autophagic LC3B: enhanced
pTAU (202)
  expression of phosphorylated Tau: inhibited
Hela-mt-Keima cells [1]
  mitophagy (confocal live cell imaging): enhance mitophagy
Hela-mt-Keima cells [2]
  mitophagy (flow cytometry, MI=561/405+561): enhance mitophagy
